Legend:
[1] = tested on: entorhinal cortex of aMCI subjects; experiment: fMRI activity in entorhinal cortex during lure stimuli correctly identified as similar; assay type: in vivo, human; conditions: levetiracetam 125 mg twice a day for two weeks vs placebo
Source text: As described above, the drug treatment period is the two weeks preceding Visit 1 or 2 (with the two week period preceding the other Visit being the placebo phase). […] Imaging data are obtained through high-resolution methods developed in the Stark laboratory. Data are collected on a Phillips 3 Tesla scanner (Eindhoven, The Netherlands) equipped with an 8-channel SENSE (Sensitivity Encoding) head coil, located at the F.M. Kirby Research Center for Functional Brain Imaging at the Kennedy Krieger Institute (Baltimore, Md.). High-resolution echo-planar images are collected using an acquisition matrix of 64×64, a repetition time of 1500 milliseconds, an echo time of 30 milliseconds, a […] of 70 degrees, a SENSE factor of 2, and an isotropic resolution of 1.5 mm×1.5 mm x 1.5 mm with no gap. Nineteen oblique slices are acquired parallel to the principal longitudinal axis of the hippocampus and covered the entire medial temporal lobe region bilaterally. […] Group data are analyzed using a two-way Analysis of Variance (ANOVA) with trial types and group as fixed factors, and subject as a random factor nested within group. […] The activity of the subject's medial temporal lobe is measured by functional MRI during the subject's participation in an explicit 3-alternative forced choice task, where participants view novel, repeated and similar (“lure”) stimuli. […]

[2] = tested on: aged-impaired (AI) rats; experiment: eight-arm Radial Arm Maze task, one-hour delay, aged-impaired rats; assay type: in vivo, rat; conditions: for average no. of errors±SEM: one-hour delay; for effective in reducing the number of errors by AI rats in the radial arm maze: levetiracetam on its own
Description: The effects of levetiracetam on the spatial memory retention of aged-impaired (AI) rats were assessed in a Radial Arm Maze (RAM) behavioral task using vehicle control and five different dosage levels of levetiracetam (1.25 mg/kg/day, 2.5 mg/kg/day, 5 mg/kg/day, 10 mg/kg/day and 20 mg/kg/day). RAM behavioral tasks were preformed on ten AI rats. All six treatment conditions were tested on all ten rats, as described above for the MWM test. The RAM apparatus used consisted of eight equidistantly-spaced arms. An elevated maze arm (7 cm width x 75 cm length) projected from each facet of an octagonal center platform (30 cm diameter, 51.5 cm height). Clear side walls on the arms were 10 cm high and were angled at 65° to form a trough. A food well (4 cm diameter, 2 cm deep) was located at the distal end of each arm. Froot Loops™ (Kellogg Company) were used as rewards. Blocks constructed of Plexiglas™ (30 cm height x 12 cm width) could be positioned to prevent entry to any arm. Numerous extra maze cues surrounding the apparatus were also provided. The AI rats were initially subjected to a pre-training test (Chappell et al. Neuropharmacology 37: 481-487, 1998). The pre-training test consisted of a habituation phase (4 days), a training phase on the standard win-shift task (18 days) and another training phase (14 days) in which a brief delay was imposed between presentation of a subset of arms designated by the experimenter (e.g., 5 arms available and 3 arms blocked) and completion of the eight-arm win-shift task (i.e., with all eight arms available). In the habituation phase, rats were familiarized to the maze for an 8-minute session on four consecutive days. In each of these sessions food rewards were scattered on the RAM, initially on the center platform and arms and then progressively confined to the arms. After this habituation phase, a standard training protocol was used, in which a food pellet was located at the end of each arm. Rats received one trial each day for 18 days. Each daily trial terminated when all eight food pellets had been obtained or when either 16 choices were made or 15 minutes had elapsed. After completion of this training phase, a second training phase was carried out in which the memory demand was increased by imposing a brief delay during the trial. At the beginning of each trial, three arms of the eight-arm maze were blocked. Rats were allowed to obtain food on the five arms to which access was permitted during this initial ‘information phase’ of the trial. Rats were then removed from the maze for 60 seconds, during which time the barriers on the maze were removed, thus allowing access to all eight arms. Rats were then placed back onto the center platform and allowed to obtain the remaining food rewards during this ‘retention test’ phase of the trial. The identity and configuration of the blocked arms varied across trials. The number of “errors” the AI rats made during the retention test phase was tracked. An error occurred in the trial if the rats entered an arm from which food had already been retrieved in the pre-delay component of the trial, or if it re-visited an arm in the post-delay session that had already been visited. After completion of the pre-training test, rats were subjected to trials with more extended delay intervals, i.e., a one-hour delay, between the information phase (presentation with some blocked arms) and the retention test (presentation of all arms). During the delay interval, rats remained off to the side of the maze in the testing room, on carts in their individual home cages. AI rats were pretreated 30-40 minutes before daily trials with a one-time shot of the following six conditions: 1) vehicle control (0.9% saline solution); 2) levetiracetam (1.25 mg/kg/day); 3) levetiracetam (2.5 mg/kg/day); 4) levetiracetam (5 mg/kg/day); 5) levetiracetam (10 mg/kg/day); 6) levetiracetam (20 mg/kg/day); through intraperitoneal (i.p.) injection. Injections were given every other day with intervening washout days. […]

CC[C@@H](C(N)=O)N1CCCC1=O [levetiracetam, (2S)-2-(2-oxopyrrolidin-1-yl)butanamide]
EC activity during memory judgments (fMRI) [1]: increases EC activity | effective doses of levetiracetam used in the animal model ([2]; given acutely, AI rats): 5 to 10 mg/kg | average no. of errors±SEM ([2]; levetiracetam 5 mg/kg/day i.p.): 0.75±0.32 | average no. of errors±SEM ([2]; levetiracetam 10 mg/kg/day i.p.): 0.80±0.27 | performance of AI rats in the radial maze task ([2]; levetiracetam 20 mg/kg): fails to improve the performance | effective in reducing the number of errors by AI rats in the radial arm maze ([2]; 1.25 mg/kg): not | effective in reducing the number of errors by AI rats in the radial arm maze ([2]; 2.5 mg/kg): not | effective in reducing the number of errors by AI rats in the radial arm maze ([2]; 5-10 mg/kg): effective

Source: US20160030391A1, “METHODS AND COMPOSITIONS FOR IMPROVING COGNITIVE FUNCTION” (THE JOHNS HOPKINS UNIVERSITY, priority 2013, published 2016)
